# Source: patent publication US11572399B2, “Long-acting GIP peptide analogues” (University of Copenhagen, priority 2017, dated 2023)
# pIC50: −log10 of the molar value. Where “and” joins values, the source holds several entries; their conditions need not be identical. Equal entries are not always repeated. Peptide text beside a SMILES is read from it. * marks the point of attachment. C16 diacid = O=C(O)CCCCCCCCCCCCCCC(=O)*; Palmitoyl = CCCCCCCCCCCCCCCC(=O)*
# Columns and labels:
# human GIP receptor [1] = molecular target: T1, human GIP receptor (Homo sapiens, UniProt P48546); test: cAMP accumulation assay, antagonism of a GIP-mediated cAMP response (50-80% of max); format: cell-based; conditions: for Fold change of IC50 versus GIP(5-30)NH2: fold change of IC50 from GIP(5-30)NH2; for IC50: transiently transfected COS-7 cells, Table 1 and text, read-out: cAMP antagonism nM (IC50, antagonistic potency)
# T1 construct: host or cells: COS-7, transient transfection (calcium phosphate), cDNA in pCMV-Script
# T1 sequence (P48546 22-466): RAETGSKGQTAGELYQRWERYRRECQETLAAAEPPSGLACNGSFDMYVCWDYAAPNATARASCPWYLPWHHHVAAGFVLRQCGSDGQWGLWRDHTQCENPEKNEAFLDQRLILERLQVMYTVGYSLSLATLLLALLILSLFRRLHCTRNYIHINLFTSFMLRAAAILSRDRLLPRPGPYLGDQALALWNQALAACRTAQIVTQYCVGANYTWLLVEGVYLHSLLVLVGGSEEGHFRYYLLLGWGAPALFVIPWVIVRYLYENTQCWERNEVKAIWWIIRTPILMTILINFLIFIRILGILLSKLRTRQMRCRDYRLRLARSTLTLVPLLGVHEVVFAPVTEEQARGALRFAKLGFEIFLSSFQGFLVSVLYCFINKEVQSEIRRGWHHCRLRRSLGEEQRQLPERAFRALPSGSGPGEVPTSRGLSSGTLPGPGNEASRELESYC
# Experimental: The day after, the cells were washed twice with Hepes buffered saline (HBS) buffer and incubated with HBS and 1 mM 3-isobutyl-1-methylxanthine (IBMX) for 30 min at 37° C. […] The HitHunter™ cAMP XS assay (DiscoveRx) was carried out according to the manufacturer's instructions.
# human GIP receptor [2] = molecular target: T1, human GIP receptor; test: cAMP accumulation assay, agonism (ligand alone); format: cell-based; conditions: COS-7 cells, Table 1; for Emax: COS-7, intrinsic cAMP activity
# human GIP receptor [3] = molecular target: T1, human GIP receptor; test: 125I-human GIP competition binding assay, in the presence and absence of 2% HSA; conditions: for Fold change HSA (2%)/Casein (0.1%): IC50 (plus HSA)/IC50 (minus HSA); for Binding (+/−HSA) Fold: fold change +HSA/−HSA;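 for all read-outs here: nonspecific binding taken as radioligand bound to untransfected cells, IC50 obtained from nonlinear regression fits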
# [4] = binding in 0.1% casein (absence of HSA), log value, read-out: logIC50 0.1% casein (converted)
# [5] = heterologous competition binding, transiently transfected COS-7 cells expressing the human GIP receptor, read-out: Binding
smiles,measurement,setting,value
"CCCCCCCCCCCCCCCC(=O)N[C@H](C(=O)N[C@@H](Cc1ccccc1)C(=O)N[C@H](C(=O)N[C@@H](CO)C(=O)N[C@@H](CC(=O)O)C(=O)N[C@@H](Cc1ccc(O)cc1)C(=O)N[C@@H](CO)C(=O)N[C@H](C(=O)N[C@@H](C)C(=O)N[C@@H](CCSC)C(=O)N[C@@H](CC(=O)O)C(=O)N[C@@H](CCCNC(=N)N)C(=O)N[C@H](C(=O)N[C@@H](CCCCN)C(=O)N[C@@H](CCC(N)=O)C(=O)N[C@@H](CCC(N)=O)C(=O)N[C@@H](CC(=O)O)C(=O)N[C@@H](Cc1ccccc1)C(=O)N[C@H](C(=O)N[C@@H](CC(N)=O)C(=O)N[C@@H](Cc1c[nH]c2ccccc12)C(=O)N[C@@H](CC(C)C)C(=O)N[C@@H](CC(C)C)C(=O)N[C@@H](C)C(=O)N[C@@H](CCC(N)=O)C(=O)N[C@@H](CCCNC(=N)N)C(N)=O)C(C)C)[C@@H](C)CC)[C@@H](C)CC)[C@@H](C)CC)[C@@H](C)O [AT133, [hGIP(5-30)NH2[K16R; H18K; K30R]-C16/5]] (Palmitoyl-TFISDYSIAMDRIKQQDFVNWLLAQR-NH2)",Ability to antagonize the GIP-mediated cAMP response (in words),human GIP receptor [1],failed to antagonize
same,Emax,human GIP receptor [2],0%
same,Fold change HSA (2%)/Casein (0.1%),human GIP receptor [3],1.3
same,IC50,human GIP receptor [3]; [4],1580 nM
same,pIC50,human GIP receptor [3]; [5],5.76
"CC[C@H](C)[C@H](NC(=O)[C@H](CO)NC(=O)[C@H](Cc1ccc(O)cc1)NC(=O)[C@H](CC(=O)O)NC(=O)[C@H](CO)NC(=O)[C@@H](NC(=O)[C@H](Cc1ccccc1)NC(=O)[C@@H](N)[C@@H](C)O)[C@@H](C)CC)C(=O)N[C@@H](C)C(=O)N[C@@H](CCSC)C(=O)N[C@@H](CC(=O)O)C(=O)N[C@@H](CCCCN)C(=O)N[C@H](C(=O)N[C@@H](Cc1c[nH]cn1)C(=O)N[C@@H](CCC(N)=O)C(=O)N[C@@H](CCC(N)=O)C(=O)N[C@@H](CC(=O)O)C(=O)N[C@@H](Cc1ccccc1)C(=O)N[C@H](C(=O)N[C@@H](CC(N)=O)C(=O)N[C@@H](Cc1c[nH]c2ccccc12)C(=O)N[C@@H](CCCCNC(=O)CCCCCCCCCCCCCCC(=O)O)C(=O)N[C@@H](CC(C)C)C(=O)N[C@@H](C)C(=O)N[C@@H](CCC(N)=O)C(=O)N[C@@H](CCCCN)C(N)=O)C(C)C)[C@@H](C)CC [AT186, [hGIP(5-30)NH2[L26K]-C16diacid/26]] (H-TFISDYSIAMDKIHQQDFVNWK(C16 diacid)LAQK-NH2; N-terminus assumed)",Fold change of IC50 versus GIP(5-30)NH2,human GIP receptor [1],2.6
same,IC50,human GIP receptor [1],79 nM
same,Emax,human GIP receptor [2],0%
same,Fold change HSA (2%)/Casein (0.1%),human GIP receptor [3],3.8
same,Ki,human GIP receptor [3]; absence of HSA,105 nM
same,Binding (+/−HSA) Fold,human GIP receptor [3],7.9
same,IC50,"human GIP receptor [3]; heterologous competition binding, transiently transfected COS-7 cells expressing the human GIP receptor, log value of the nM column, read-out: Binding log (converted)",158 nM and 144 nM
"CCCCCCCCCCCCCCCC(=O)NCCCC[C@H](NC(=O)[C@@H](NC(=O)[C@H](CCCCN)NC(=O)[C@H](CC(=O)O)NC(=O)[C@H](CC(C)C)NC(=O)[C@H](C)NC(=O)[C@@H](NC(=O)[C@H](CO)NC(=O)[C@H](Cc1ccc(O)cc1)NC(=O)[C@H](CC(=O)O)NC(=O)[C@H](CO)NC(=O)[C@@H](NC(=O)[C@H](Cc1ccccc1)NC(=O)[C@@H](NC(=O)CNC(=O)[C@@H](N)CCC(=O)O)[C@@H](C)O)[C@@H](C)CC)[C@@H](C)CC)[C@@H](C)CC)C(=O)N[C@@H](CCC(N)=O)C(=O)N[C@@H](CCC(N)=O)C(=O)N[C@@H](CC(=O)O)C(=O)N[C@@H](Cc1ccccc1)C(=O)N[C@H](C(=O)N[C@@H](CC(N)=O)C(=O)N[C@@H](Cc1c[nH]c2ccccc12)C(=O)N[C@@H](CC(C)C)C(=O)N[C@@H](CC(C)C)C(=O)N[C@@H](C)C(=O)N[C@@H](CCC(N)=O)C(=O)N[C@@H](CCCCN)C(N)=O)C(C)C [AT143, [hGIP(3-30)NH2[M14L; H18K]-C16/18]] (H-EGTFISDYSIALDKIK(Palmitoyl)QQDFVNWLLAQK-NH2; N-terminus assumed)",cAMP - antagonisme fold (paired),"human GIP receptor [1]; fold vs GIP(3-30)NH2, Table 3b",0.3 fold
same,IC50,human GIP receptor [1],15 nM
same,Emax,human GIP receptor [2],40%
same,IC50,"human GIP receptor [3]; 0.1% casein, no HSA, Table 3b, read-out: Binding logIC50 0.1% casein (converted)",86.1 nM
same,IC50,"human GIP receptor [3]; 2% HSA, Table 3b, read-out: Binding logIC50 2% HSA (converted)",105 nM
same,pIC50,"human GIP receptor [3]; Table 3b, initial data, read-out: Binding IC50",7.06
same,Binding fold (paired),"human GIP receptor [3]; fold decrease in affinity compared to GIP(3-30)NH2, Table 3b",11 fold
same,pIC50,human GIP receptor [3]; [5],7.10
same,"Fold change in affinity, IC50 (plus HSA)/IC50 (minus HSA)","human GIP receptor [3]; presence vs absence of 2% HSA, proxy for albumin binding",1.2 fold
"CC[C@H](C)[C@H](NC(=O)[C@H](CO)NC(=O)[C@H](Cc1ccc(O)cc1)NC(=O)[C@H](CC(=O)O)NC(=O)[C@H](CCCCNC(=O)CCCCCCCCCCCCCCC(=O)O)NC(=O)[C@@H](NC(=O)[C@H](Cc1ccccc1)NC(=O)[C@@H](N)[C@@H](C)O)[C@@H](C)CC)C(=O)N[C@@H](C)C(=O)N[C@@H](CCSC)C(=O)N[C@@H](CC(=O)O)C(=O)N[C@@H](CCCCN)C(=O)N[C@H](C(=O)N[C@@H](Cc1c[nH]cn1)C(=O)N[C@@H](CCC(N)=O)C(=O)N[C@@H](CCC(N)=O)C(=O)N[C@@H](CC(=O)O)C(=O)N[C@@H](Cc1ccccc1)C(=O)N[C@H](C(=O)N[C@@H](CC(N)=O)C(=O)N[C@@H](Cc1c[nH]c2ccccc12)C(=O)N[C@@H](CC(C)C)C(=O)N[C@@H](CC(C)C)C(=O)N[C@@H](C)C(=O)N[C@@H](CCC(N)=O)C(=O)N[C@@H](CCCCN)C(N)=O)C(C)C)[C@@H](C)CC [AT170, [hGIP(5-30)NH2[S8K]-C16diacid/8]] (H-TFIK(C16 diacid)DYSIAMDKIHQQDFVNWLLAQK-NH2; N-terminus assumed)",Fold change of IC50 versus GIP(5-30)NH2,human GIP receptor [1],32.4
same,Emax,human GIP receptor [2],0%
same,Fold change HSA (2%)/Casein (0.1%),human GIP receptor [3],2.2
same,IC50,human GIP receptor [3]; [4],631 nM
same,Binding (+/−HSA) Fold,human GIP receptor [3],2.2
same,Ki,human GIP receptor [3]; presence of 2% HSA,1300 nM
"CC[C@H](C)[C@H](NC(=O)[C@H](CO)NC(=O)[C@H](Cc1ccc(O)cc1)NC(=O)[C@H](CC(=O)O)NC(=O)[C@H](CO)NC(=O)[C@@H](NC(=O)[C@H](Cc1ccccc1)NC(=O)[C@@H](NC(=O)CNC(=O)[C@@H](N)CCC(=O)O)[C@@H](C)O)[C@@H](C)CC)C(=O)N[C@@H](C)C(=O)N[C@@H](CCSC)C(=O)N[C@@H](CC(=O)O)C(=O)N[C@@H](CCCCN)C(=O)N[C@H](C(=O)N[C@@H](Cc1c[nH]cn1)C(=O)N[C@@H](CCC(N)=O)C(=O)N[C@@H](CCC(N)=O)C(=O)N[C@@H](CCCCNC(=O)CCCCCCCCCCCCCCC(=O)O)C(=O)N[C@@H](Cc1ccccc1)C(=O)N[C@H](C(=O)N[C@@H](CC(N)=O)C(=O)N[C@@H](Cc1c[nH]c2ccccc12)C(=O)N[C@@H](CC(C)C)C(=O)N[C@@H](CC(C)C)C(=O)N[C@@H](C)C(=O)N[C@@H](CCC(N)=O)C(=O)N[C@@H](CCCCN)C(N)=O)C(C)C)[C@@H](C)CC [AT310, [hGIP(3-30)NH2[D21K]-C16diacid/21]] (H-EGTFISDYSIAMDKIHQQK(C16 diacid)FVNWLLAQK-NH2; N-terminus assumed)",IC50,human GIP receptor [1],49 nM
same,Emax,human GIP receptor [2],6.2%
"CCCCCCCCCCCCCCCC(=O)NCCCC[C@H](NC(=O)[C@@H](NC(=O)[C@H](CCCCN)NC(=O)[C@H](CC(=O)O)NC(=O)[C@H](CCSC)NC(=O)[C@H](C)NC(=O)[C@@H](NC(=O)[C@H](CO)NC(=O)[C@H](Cc1ccc(O)cc1)NC(=O)[C@H](CC(=O)O)NC(=O)[C@H](CO)NC(=O)[C@@H](NC(=O)[C@H](Cc1ccccc1)NC(=O)[C@@H](N)[C@@H](C)O)[C@@H](C)CC)[C@@H](C)CC)[C@@H](C)CC)C(=O)N[C@@H](CCC(N)=O)C(=O)N[C@@H](CCC(N)=O)C(=O)N[C@@H](CC(=O)O)C(=O)N[C@@H](Cc1ccccc1)C(=O)N[C@H](C(=O)N[C@@H](CC(N)=O)C(=O)N[C@@H](Cc1c[nH]c2ccccc12)C(=O)N[C@@H](CC(C)C)C(=O)N[C@@H](CC(C)C)C(=O)N[C@@H](C)C(=O)N[C@@H](CCC(N)=O)C(=O)N[C@@H](CCCCN)C(N)=O)C(C)C [AT145, [hGIP(5-30)NH2[H18K]-C16/18]] (H-TFISDYSIAMDKIK(Palmitoyl)QQDFVNWLLAQK-NH2; N-terminus assumed)",IC50,human GIP receptor [1],66 nM
same,Emax,human GIP receptor [2],16%
same,EC50,human GIP receptor [2]; read-out: cAMP agonism nM (EC50),33 nM
"CC[C@H](C)[C@H](NC(=O)[C@H](CO)NC(=O)[C@H](Cc1ccc(O)cc1)NC(=O)[C@H](CCCCNC(=O)CCCCCCCCCCCCCCC(=O)O)NC(=O)[C@H](CO)NC(=O)[C@@H](NC(=O)[C@H](Cc1ccccc1)NC(=O)[C@@H](NC(=O)CNC(=O)[C@@H](N)CCC(=O)O)[C@@H](C)O)[C@@H](C)CC)C(=O)N[C@@H](C)C(=O)N[C@@H](CCSC)C(=O)N[C@@H](CC(=O)O)C(=O)N[C@@H](CCCCN)C(=O)N[C@H](C(=O)N[C@@H](Cc1c[nH]cn1)C(=O)N[C@@H](CCC(N)=O)C(=O)N[C@@H](CCC(N)=O)C(=O)N[C@@H](CC(=O)O)C(=O)N[C@@H](Cc1ccccc1)C(=O)N[C@H](C(=O)N[C@@H](CC(N)=O)C(=O)N[C@@H](Cc1c[nH]c2ccccc12)C(=O)N[C@@H](CC(C)C)C(=O)N[C@@H](CC(C)C)C(=O)N[C@@H](C)C(=O)N[C@@H](CCC(N)=O)C(=O)N[C@@H](CCCCN)C(N)=O)C(C)C)[C@@H](C)CC [AT300, [hGIP(3-30)NH2[D9K]-C16diacid/9]] (H-EGTFISK(C16 diacid)YSIAMDKIHQQDFVNWLLAQK-NH2; N-terminus assumed)",IC50,human GIP receptor [1],22 nM
same,cAMP agonism Emax,human GIP receptor [2]; intrinsic cAMP activity,no ag.
